According to the NIST ThermoML archive (doi:10.1021/je060271a):
± gives the expanded uncertainty stated by the source.

Conditions: Liquid, Vibrating tube method

Structure (SMILES): CCCCCC(=O)OCC(COC(=O)CCCCC)(COC(=O)CCCCC)COC(=O)CCCCC [pentaerythritol tetrahexanoate]
- mass density (303.17 K, 1567.2 kPa): 989.3 ± 1.2 kg/m3
- mass density (303.17 K, 1583.5 kPa): 989.4 ± 1.2 kg/m3
- mass density (303.17 K, 1597.3 kPa): 989.4 ± 1.2 kg/m3
- mass density (303.17 K, 1611.3 kPa): 989.4 ± 1.2 kg/m3
- mass density (303.17 K, 1628.3 kPa): 989.5 ± 1.2 kg/m3
- mass density (303.17 K, 5535.7 kPa): 992 ± 1.2 kg/m3
- mass density (303.17 K, 5553.1 kPa): 991.9 ± 1.2 kg/m3
- mass density (303.17 K, 5573.9 kPa): 992 ± 1.2 kg/m3
- mass density (303.17 K, 17353 kPa): 999.2 ± 1.2 kg/m3
- mass density (303.17 K, 32996 kPa): 1008 ± 1.2 kg/m3
- mass density (303.17 K, 33019 kPa): 1007.9 ± 1.2 kg/m3
- mass density (303.17 K, 33039 kPa): 1007.9 ± 1.2 kg/m3
- mass density (303.17 K, 33058 kPa): 1008 ± 1.2 kg/m3
- mass density (303.17 K, 33082 kPa): 1008.1 ± 1.2 kg/m3
- mass density (303.17 K, 33102 kPa): 1007.9 ± 1.2 kg/m3
- mass density (303.17 K, 33125 kPa): 1008 ± 1.2 kg/m3
- mass density (303.17 K, 33145 kPa): 1008 ± 1.2 kg/m3
- mass density (303.17 K, 33165 kPa): 1007.9 ± 1.2 kg/m3
- mass density (323.14 K, 384.5 kPa): 973 ± 1.2 kg/m3
- mass density (323.14 K, 386.4 kPa): 972.9 ± 1.2 kg/m3
- mass density (323.14 K, 388.7 kPa): 972.8 ± 1.2 kg/m3
- mass density (323.14 K, 391.1 kPa): 972.8 ± 1.2 kg/m3
- mass density (323.14 K, 393.7 kPa): 972.9 ± 1.2 kg/m3
- mass density (323.14 K, 396.7 kPa): 972.9 ± 1.2 kg/m3
- mass density (323.14 K, 398.7 kPa): 973 ± 1.2 kg/m3
- mass density (323.14 K, 401.3 kPa): 973 ± 1.2 kg/m3
- mass density (323.14 K, 403.6 kPa): 972.9 ± 1.2 kg/m3
- mass density (323.14 K, 406.6 kPa): 972.9 ± 1.2 kg/m3
- mass density (323.14 K, 408.8 kPa): 972.9 ± 1.2 kg/m3
- mass density (323.14 K, 411.4 kPa): 973 ± 1.2 kg/m3
- mass density (323.14 K, 414.9 kPa): 972.9 ± 1.2 kg/m3
- mass density (323.14 K, 417.5 kPa): 972.8 ± 1.2 kg/m3
- mass density (323.14 K, 420.5 kPa): 972.9 ± 1.2 kg/m3
- mass density (323.14 K, 423.2 kPa): 973 ± 1.2 kg/m3
- mass density (323.14 K, 426 kPa): 972.9 ± 1.2 kg/m3
- mass density (323.14 K, 429.2 kPa): 972.9 ± 1.2 kg/m3
- mass density (323.14 K, 431.6 kPa): 972.9 ± 1.2 kg/m3
- mass density (323.14 K, 434.7 kPa): 973.1 ± 1.2 kg/m3
- mass density (323.14 K, 438 kPa): 972.9 ± 1.2 kg/m3
- mass density (323.14 K, 440.8 kPa): 972.9 ± 1.2 kg/m3
- mass density (323.14 K, 477.3 kPa): 972.9 ± 1.2 kg/m3
- mass density (323.14 K, 481.1 kPa): 973 ± 1.2 kg/m3
- mass density (323.14 K, 484.4 kPa): 972.9 ± 1.2 kg/m3
- mass density (323.14 K, 488.9 kPa): 972.9 ± 1.2 kg/m3
- mass density (323.14 K, 492.6 kPa): 973 ± 1.2 kg/m3
- mass density (323.14 K, 495.7 kPa): 973 ± 1.2 kg/m3
- mass density (323.14 K, 499.5 kPa): 973 ± 1.2 kg/m3
- mass density (323.14 K, 503.9 kPa): 973 ± 1.2 kg/m3
- mass density (323.14 K, 507.5 kPa): 973.1 ± 1.2 kg/m3
- mass density (323.14 K, 512.4 kPa): 973.1 ± 1.2 kg/m3
- mass density (323.14 K, 516.2 kPa): 973 ± 1.2 kg/m3
- mass density (323.14 K, 645.8 kPa): 973.2 ± 1.2 kg/m3
- mass density (323.14 K, 648.1 kPa): 973.1 ± 1.2 kg/m3
- mass density (323.14 K, 650 kPa): 973 ± 1.2 kg/m3
- mass density (323.14 K, 652.6 kPa): 973.1 ± 1.2 kg/m3
- mass density (323.14 K, 654.5 kPa): 973.1 ± 1.2 kg/m3
- mass density (323.14 K, 657.1 kPa): 972.9 ± 1.2 kg/m3
- mass density (323.14 K, 686.8 kPa): 973.3 ± 1.2 kg/m3
- mass density (323.14 K, 689.8 kPa): 973 ± 1.2 kg/m3
- mass density (323.14 K, 692.2 kPa): 973.1 ± 1.2 kg/m3
- mass density (323.14 K, 694.8 kPa): 973.3 ± 1.2 kg/m3
- mass density (323.14 K, 697.1 kPa): 973.2 ± 1.2 kg/m3
- mass density (323.14 K, 763.3 kPa): 973.2 ± 1.2 kg/m3
- mass density (323.14 K, 801.5 kPa): 973.1 ± 1.2 kg/m3
- mass density (323.14 K, 803.8 kPa): 973.2 ± 1.2 kg/m3
- mass density (323.14 K, 807.1 kPa): 973.2 ± 1.2 kg/m3
- mass density (323.14 K, 809.5 kPa): 973.2 ± 1.2 kg/m3
- mass density (323.14 K, 812.1 kPa): 973.3 ± 1.2 kg/m3
- mass density (323.14 K, 858.7 kPa): 973.2 ± 1.2 kg/m3
- mass density (323.14 K, 862.3 kPa): 973.3 ± 1.2 kg/m3
- mass density (323.14 K, 865.1 kPa): 973.2 ± 1.2 kg/m3
- mass density (323.14 K, 867.7 kPa): 973.2 ± 1.2 kg/m3
- mass density (323.14 K, 916.7 kPa): 973.3 ± 1.2 kg/m3
- mass density (323.14 K, 923.3 kPa): 973.2 ± 1.2 kg/m3
- mass density (323.14 K, 1440.1 kPa): 973.7 ± 1.2 kg/m3
- mass density (323.14 K, 1446.1 kPa): 973.7 ± 1.2 kg/m3
- mass density (323.14 K, 1451.7 kPa): 973.5 ± 1.2 kg/m3
- mass density (323.14 K, 1458.6 kPa): 973.7 ± 1.2 kg/m3
- mass density (323.14 K, 1465.1 kPa): 973.6 ± 1.2 kg/m3
- mass density (323.14 K, 1499.4 kPa): 973.7 ± 1.2 kg/m3
- mass density (323.14 K, 2143.7 kPa): 974.1 ± 1.2 kg/m3
- mass density (323.14 K, 2154.2 kPa): 974.2 ± 1.2 kg/m3
- mass density (323.14 K, 2163.4 kPa): 974.2 ± 1.2 kg/m3
- mass density (323.14 K, 2899 kPa): 974.7 ± 1.2 kg/m3
- mass density (323.14 K, 2935.4 kPa): 974.6 ± 1.2 kg/m3
- mass density (323.14 K, 2971.1 kPa): 974.8 ± 1.2 kg/m3
- mass density (323.14 K, 2984.1 kPa): 974.9 ± 1.2 kg/m3
- mass density (323.14 K, 2995.2 kPa): 974.8 ± 1.2 kg/m3
- mass density (323.14 K, 3008.5 kPa): 974.8 ± 1.2 kg/m3
- mass density (323.14 K, 3019.8 kPa): 974.7 ± 1.2 kg/m3
- mass density (323.14 K, 3032.8 kPa): 974.8 ± 1.2 kg/m3
- mass density (323.14 K, 3043.7 kPa): 974.8 ± 1.2 kg/m3
- mass density (323.14 K, 3057.4 kPa): 974.8 ± 1.2 kg/m3
- mass density (323.14 K, 3071.1 kPa): 974.7 ± 1.2 kg/m3
- mass density (323.14 K, 3082.4 kPa): 974.9 ± 1.2 kg/m3
- mass density (323.14 K, 3093.6 kPa): 974.9 ± 1.2 kg/m3
- mass density (323.14 K, 3107.5 kPa): 974.7 ± 1.2 kg/m3
- mass density (323.14 K, 3120.8 kPa): 974.9 ± 1.2 kg/m3
- mass density (323.14 K, 3132.5 kPa): 975 ± 1.2 kg/m3
- mass density (323.14 K, 3143.7 kPa): 975 ± 1.2 kg/m3
- mass density (323.14 K, 3157.8 kPa): 974.8 ± 1.2 kg/m3
- mass density (323.14 K, 3169 kPa): 974.9 ± 1.2 kg/m3
- mass density (323.14 K, 3182.6 kPa): 974.9 ± 1.2 kg/m3
- mass density (323.14 K, 3194.3 kPa): 974.9 ± 1.2 kg/m3
- mass density (323.14 K, 3207.9 kPa): 974.9 ± 1.2 kg/m3
- mass density (323.14 K, 3219.3 kPa): 975.1 ± 1.2 kg/m3
- mass density (323.14 K, 3233.3 kPa): 974.9 ± 1.2 kg/m3
- mass density (323.14 K, 3245.1 kPa): 974.9 ± 1.2 kg/m3
- mass density (323.14 K, 3259.7 kPa): 974.9 ± 1.2 kg/m3
- mass density (323.14 K, 3271.8 kPa): 975 ± 1.2 kg/m3
- mass density (323.14 K, 3285.5 kPa): 975 ± 1.2 kg/m3
- mass density (323.14 K, 3298 kPa): 974.9 ± 1.2 kg/m3
- mass density (323.14 K, 3312.4 kPa): 975 ± 1.2 kg/m3
- mass density (323.14 K, 3324.7 kPa): 975.1 ± 1.2 kg/m3
- mass density (323.14 K, 3339.9 kPa): 975.1 ± 1.2 kg/m3
- mass density (323.14 K, 3353.1 kPa): 975 ± 1.2 kg/m3
- mass density (323.14 K, 3384.1 kPa): 975 ± 1.2 kg/m3
- mass density (323.14 K, 3463.3 kPa): 975.1 ± 1.2 kg/m3
- mass density (323.14 K, 3495.4 kPa): 975.1 ± 1.2 kg/m3
- mass density (323.14 K, 4052.6 kPa): 975.6 ± 1.2 kg/m3
- mass density (323.14 K, 4071.6 kPa): 975.6 ± 1.2 kg/m3
- mass density (323.14 K, 4087 kPa): 975.6 ± 1.2 kg/m3
- mass density (323.14 K, 4103.5 kPa): 975.6 ± 1.2 kg/m3
- mass density (323.14 K, 4122.2 kPa): 975.5 ± 1.2 kg/m3
- mass density (323.14 K, 4176.9 kPa): 975.4 ± 1.2 kg/m3
- mass density (323.14 K, 4193.2 kPa): 975.6 ± 1.2 kg/m3
- mass density (323.14 K, 4530.6 kPa): 975.9 ± 1.2 kg/m3
- mass density (323.14 K, 4548.8 kPa): 975.8 ± 1.2 kg/m3
- mass density (323.14 K, 4570.3 kPa): 975.9 ± 1.2 kg/m3
- mass density (323.14 K, 4588.6 kPa): 975.9 ± 1.2 kg/m3
- mass density (323.14 K, 4610.6 kPa): 976 ± 1.2 kg/m3
- mass density (323.14 K, 4632.6 kPa): 975.9 ± 1.2 kg/m3
- mass density (323.14 K, 4650.7 kPa): 976 ± 1.2 kg/m3
- mass density (323.14 K, 4669.3 kPa): 975.9 ± 1.2 kg/m3
- mass density (323.14 K, 4691.8 kPa): 975.9 ± 1.2 kg/m3
- mass density (323.14 K, 4714.6 kPa): 975.9 ± 1.2 kg/m3
- mass density (323.14 K, 4733.6 kPa): 976 ± 1.2 kg/m3
- mass density (323.14 K, 4753.2 kPa): 975.9 ± 1.2 kg/m3
- mass density (323.14 K, 4776.2 kPa): 975.9 ± 1.2 kg/m3
- mass density (323.14 K, 4795.8 kPa): 976.1 ± 1.2 kg/m3
- mass density (323.14 K, 4819.1 kPa): 975.9 ± 1.2 kg/m3
- mass density (323.14 K, 4838.9 kPa): 976.1 ± 1.2 kg/m3
- mass density (323.14 K, 4862.6 kPa): 976.2 ± 1.2 kg/m3
- mass density (323.14 K, 4886.4 kPa): 976.1 ± 1.2 kg/m3
